Assays:
Type in all cases: functional, cell-based
[1] = test system: MCF7; assay: Antiproliferative activity against human MCF7 cells assessed as cell viability after 72 hrs by MTT assay; details: MCF7, 72 h
[2] = test system: A549; assay: Antiproliferative activity against human A549 cells assessed as cell viability after 72 hrs by MTT assay; details: A549, 72 h
[3] = Antiproliferative activity against human HL60 cells assessed as cell viability after 72 hrs by MTT assay; details: HL-60, 72 h
[4] = Antiproliferative activity against human HCT116 cells assessed as cell viability after 72 hrs by MTT assay; details: HCT-116, 72 h
[5] = test system: HeLa; assay: Antiproliferative activity against human HeLa cells assessed as cell viability after 72 hrs by MTT assay
[6] = test system: HepG2; assay: Antiproliferative activity against human HepG2 cells assessed as cell viability after 72 hrs by MTT assay; details: HepG2, 72 h
[7] = Cytotoxicity against mouse J774A1 cells assessed as cell viability after 72 hrs by MTT assay; details: J774.A1, 72 h

With `CC1(C)CC[C@]2(C(=O)O)CC[C@]3(C)C(=CC[C@@H]4[C@@]5(C)CC[C@H](O[C@@H]6O[C@H](CO[C@@H]7OC[C@H](O)[C@H](O)[C@H]7O)[C@@H](O)[C@H](O)[C@H]6NC(=O)/C=C/c6ccc(Br)cc6)C(C)(C)[C@@H]5CC[C@]43C)[C@@H]2C1` the IC50 [1] was > 50 µM, the IC50 [2] was > 50 µM and the IC50 [3] was > 50 µM. For the same molecule, the IC50 [4] was 33.2 µM, the IC50 [5] was > 50 µM and the IC50 [6] was > 50 µM.
With `CC1(C)CC[C@]2(C(=O)O)CC[C@]3(C)C(=CC[C@@H]4[C@@]5(C)CC[C@H](O[C@@H]6O[C@H](CO[C@@H]7OC[C@H](O)[C@H](O)[C@H]7O)[C@@H](O)[C@H](O)[C@H]6NC(=O)/C=C/c6cccc(Br)c6)C(C)(C)[C@@H]5CC[C@]43C)[C@@H]2C1` the IC50 [1] was > 50 µM, the IC50 [2] was > 50 µM and the IC50 [3] was > 50 µM. The IC50 [4] was 10.2 µM, the IC50 [5] was > 50 µM and the IC50 [6] was > 50 µM.
With `CC(=O)N[C@H]1[C@H](O[C@H]2CC[C@]3(C)[C@H]4CC=C5[C@@H]6CC(C)(C)CC[C@]6(C(=O)O)CC[C@@]5(C)[C@]4(C)CC[C@H]3C2(C)C)O[C@H](CO[C@@H]2OC[C@H](O)[C@H](O)[C@H]2O)[C@@H](O)[C@@H]1O` the IC50 [1] was 9.34 µM, the IC50 [2] was 5.27 µM and the IC50 [3] was 9.92 µM. The IC50 [4] was 16 µM, the IC50 [5] was 5.27 µM and the IC50 [6] was 10.3 µM.
In the case of `CC1(C)CC[C@]2(C(=O)O)CC[C@]3(C)C(=CC[C@@H]4[C@@]5(C)CC[C@H](O[C@@H]6O[C@H](CO[C@@H]7OC[C@H](O)[C@H](O)[C@H]7O)[C@@H](O)[C@H](O)[C@H]6NC(=O)/C=C/c6cccc(F)c6)C(C)(C)[C@@H]5CC[C@]43C)[C@@H]2C1`, the IC50 [1] is reported as > 50 µM, the IC50 [2] is reported as 32.8 µM and the IC50 [3] is reported as > 50 µM. The IC50 [4] was 8.5 µM, the IC50 [5] was 48.4 µM and the IC50 [6] was > 50 µM.
In the case of `COc1ccccc1/C=C/C(=O)N[C@H]1[C@H](O[C@H]2CC[C@]3(C)[C@H]4CC=C5[C@@H]6CC(C)(C)CC[C@]6(C(=O)O)CC[C@@]5(C)[C@]4(C)CC[C@H]3C2(C)C)O[C@H](CO[C@@H]2OC[C@H](O)[C@H](O)[C@H]2O)[C@@H](O)[C@@H]1O`, the IC50 [1] is reported as > 50 µM, the IC50 [2] is reported as > 50 µM and the IC50 [3] is reported as > 50 µM. For the same molecule, the IC50 [4] was > 50 µM, the IC50 [5] was > 50 µM and the IC50 [6] was > 50 µM.
In the case of `CC1(C)CC[C@]2(C(=O)O)CC[C@]3(C)C(=CC[C@@H]4[C@@]5(C)CC[C@H](O[C@@H]6O[C@H](CO[C@@H]7OC[C@H](O)[C@H](O)[C@H]7O)[C@@H](O)[C@H](O)[C@H]6NC(=O)/C=C/c6ccccc6)C(C)(C)[C@@H]5CC[C@]43C)[C@@H]2C1`, the IC50 [1] is reported as 45.2 µM, the IC50 [2] is reported as > 50 µM and the IC50 [3] is reported as > 50 µM. For the same molecule, the IC50 [4] was 19.3 µM, the IC50 [5] was 40.2 µM and the IC50 [6] was > 50 µM.
For `Cc1cccc(/C=C/C(=O)N[C@H]2[C@H](O[C@H]3CC[C@]4(C)[C@H]5CC=C6[C@@H]7CC(C)(C)CC[C@]7(C(=O)O)CC[C@@]6(C)[C@]5(C)CC[C@H]4C3(C)C)O[C@H](CO[C@@H]3OC[C@H](O)[C@H](O)[C@H]3O)[C@@H](O)[C@@H]2O)c1`, the IC50 [1] was > 50 µM, the IC50 [2] was > 50 µM and the IC50 [3] was > 50 µM. For the same molecule, the IC50 [4] was > 50 µM, the IC50 [5] was > 50 µM and the IC50 [6] was > 50 µM.
In the case of `COc1ccc(/C=C/C(=O)N[C@H]2[C@H](O[C@H]3CC[C@]4(C)[C@H]5CC=C6[C@@H]7CC(C)(C)CC[C@]7(C(=O)O)CC[C@@]6(C)[C@]5(C)CC[C@H]4C3(C)C)O[C@H](CO[C@@H]3OC[C@H](O)[C@H](O)[C@H]3O)[C@@H](O)[C@@H]2O)cc1OC`, the IC50 [1] is reported as > 50 µM, the IC50 [2] is reported as > 50 µM and the IC50 [3] is reported as > 50 µM. For the same molecule, the IC50 [4] was > 50 µM, the IC50 [5] was > 50 µM and the IC50 [6] was > 50 µM.
In the case of `COc1cccc(/C=C/C(=O)N[C@H]2[C@H](O[C@H]3CC[C@]4(C)[C@H]5CC=C6[C@@H]7CC(C)(C)CC[C@]7(C(=O)O)CC[C@@]6(C)[C@]5(C)CC[C@H]4C3(C)C)O[C@H](CO[C@@H]3OC[C@H](O)[C@H](O)[C@H]3O)[C@@H](O)[C@@H]2O)c1OC`, the IC50 [1] is reported as > 50 µM, the IC50 [2] is reported as > 50 µM and the IC50 [3] is reported as > 50 µM. For the same molecule, the IC50 [4] was > 50 µM, the IC50 [5] was > 50 µM and the IC50 [6] was > 50 µM.
With `CC(=O)N[C@H]1[C@H](O[C@H]2CC[C@]3(C)[C@H]4CC=C5[C@@H]6CC(C)(C)CC[C@]6(C(=O)O)CC[C@@]5(C)[C@]4(C)CC[C@H]3C2(C)C)O[C@H](CO)[C@@H](O[C@@H]2O[C@H](CO)[C@@H](O)[C@H](O)[C@H]2O)[C@@H]1O[C@H]1O[C@@H](CO)[C@@H](O)[C@@H](O)[C@@H]1O` the IC50 [7] was 0.15 µM.
In the case of `CC1(C)CC[C@]2(C(=O)O)CC[C@]3(C)C(=CC[C@@H]4[C@@]5(C)CC[C@H](O[C@@H]6O[C@H](CO[C@@H]7OC[C@H](O)[C@H](O)[C@H]7O)[C@@H](O)[C@H](O)[C@H]6NC(=O)/C=C/c6ccc(C(C)(C)C)cc6)C(C)(C)[C@@H]5CC[C@]43C)[C@@H]2C1`, the IC50 [1] is reported as > 50 µM, the IC50 [2] is reported as > 50 µM and the IC50 [3] is reported as > 50 µM. The IC50 [4] was 13.6 µM, the IC50 [5] was 39.2 µM and the IC50 [6] was > 50 µM.
For `CC1(C)CC[C@]2(C(=O)O)CC[C@]3(C)C(=CC[C@@H]4[C@@]5(C)CC[C@H](O[C@@H]6O[C@H](CO[C@@H]7OC[C@H](O)[C@H](O)[C@H]7O)[C@@H](O)[C@H](O)[C@H]6NC(=O)/C=C/c6ccc(OCc7ccccc7)cc6)C(C)(C)[C@@H]5CC[C@]43C)[C@@H]2C1`, the IC50 [1] was > 50 µM, the IC50 [2] was > 50 µM and the IC50 [3] was > 50 µM. The IC50 [4] was 23.8 µM, the IC50 [5] was > 50 µM and the IC50 [6] was > 50 µM.
With `CC1(C)CC[C@]2(C(=O)O)CC[C@]3(C)C(=CC[C@@H]4[C@@]5(C)CC[C@H](O[C@@H]6O[C@H](CO[C@@H]7OC[C@H](O)[C@H](O)[C@H]7O)[C@@H](O)[C@H](O)[C@H]6NC(=O)/C=C/c6ccc(F)cc6)C(C)(C)[C@@H]5CC[C@]43C)[C@@H]2C1` the IC50 [1] was > 50 µM, the IC50 [2] was > 50 µM and the IC50 [3] was > 50 µM. The IC50 [4] was 37.5 µM, the IC50 [5] was > 50 µM and the IC50 [6] was > 50 µM.
For `COc1ccc(OC)c(/C=C/C(=O)N[C@H]2[C@H](O[C@H]3CC[C@]4(C)[C@H]5CC=C6[C@@H]7CC(C)(C)CC[C@]7(C(=O)O)CC[C@@]6(C)[C@]5(C)CC[C@H]4C3(C)C)O[C@H](CO[C@@H]3OC[C@H](O)[C@H](O)[C@H]3O)[C@@H](O)[C@@H]2O)c1`, the IC50 [1] was > 50 µM, the IC50 [2] was > 50 µM and the IC50 [3] was > 50 µM. For the same molecule, the IC50 [4] was > 50 µM, the IC50 [5] was > 50 µM and the IC50 [6] was > 50 µM.
For `O=c1[nH]cc(F)c(=O)[nH]1` [FLUOROURACIL], the IC50 [1] was 26.1 µM, the IC50 [2] was > 50 µM and the IC50 [3] was 27.4 µM. It also gave an IC50 [4] of 38.3 µM, an IC50 [5] of 26.2 µM and an IC50 [6] of 49 µM.
With `CC1(C)CC[C@]2(C(=O)O)CC[C@]3(C)C(=CC[C@@H]4[C@@]5(C)CC[C@H](O[C@@H]6O[C@H](CO[C@@H]7OC[C@H](O)[C@H](O)[C@H]7O)[C@@H](O)[C@H](O)[C@H]6NC(=O)/C=C/c6ccc(Cl)cc6)C(C)(C)[C@@H]5CC[C@]43C)[C@@H]2C1` the IC50 [1] was > 50 µM, the IC50 [2] was > 50 µM and the IC50 [3] was > 50 µM. For the same molecule, the IC50 [4] was > 50 µM, the IC50 [5] was > 50 µM and the IC50 [6] was > 50 µM.
For `COc1cc(/C=C/C(=O)N[C@H]2[C@H](O[C@H]3CC[C@]4(C)[C@H]5CC=C6[C@@H]7CC(C)(C)CC[C@]7(C(=O)O)CC[C@@]6(C)[C@]5(C)CC[C@H]4C3(C)C)O[C@H](CO[C@@H]3OC[C@H](O)[C@H](O)[C@H]3O)[C@@H](O)[C@@H]2O)cc(OC)c1`, the IC50 [1] was > 50 µM, the IC50 [2] was > 50 µM and the IC50 [3] was > 50 µM. The IC50 [4] was > 50 µM, the IC50 [5] was > 50 µM and the IC50 [6] was > 50 µM.
For `Cc1ccc(/C=C/C(=O)N[C@H]2[C@H](O[C@H]3CC[C@]4(C)[C@H]5CC=C6[C@@H]7CC(C)(C)CC[C@]7(C(=O)O)CC[C@@]6(C)[C@]5(C)CC[C@H]4C3(C)C)O[C@H](CO[C@@H]3OC[C@H](O)[C@H](O)[C@H]3O)[C@@H](O)[C@@H]2O)cc1`, the IC50 [1] was 38.1 µM, the IC50 [2] was > 50 µM and the IC50 [3] was > 50 µM. The IC50 [4] was 16.3 µM, the IC50 [5] was > 50 µM and the IC50 [6] was > 50 µM.
In the case of `CCOc1ccc(/C=C/C(=O)N[C@H]2[C@H](O[C@H]3CC[C@]4(C)[C@H]5CC=C6[C@@H]7CC(C)(C)CC[C@]7(C(=O)O)CC[C@@]6(C)[C@]5(C)CC[C@H]4C3(C)C)O[C@H](CO[C@@H]3OC[C@H](O)[C@H](O)[C@H]3O)[C@@H](O)[C@@H]2O)cc1`, the IC50 [1] is reported as > 50 µM, the IC50 [2] is reported as > 50 µM and the IC50 [3] is reported as > 50 µM. For the same molecule, the IC50 [4] was 13 µM, the IC50 [5] was > 50 µM and the IC50 [6] was > 50 µM.
In the case of `CC1(C)CC[C@]2(C(=O)O)CC[C@]3(C)C(=CC[C@@H]4[C@@]5(C)CC[C@H](O[C@@H]6O[C@H](CO[C@@H]7OC[C@H](O)[C@H](O)[C@H]7O)[C@@H](O)[C@H](O)[C@H]6NC(=O)/C=C/c6cccc(Cl)c6)C(C)(C)[C@@H]5CC[C@]43C)[C@@H]2C1`, the IC50 [1] is reported as > 50 µM, the IC50 [2] is reported as > 50 µM and the IC50 [3] is reported as > 50 µM. The IC50 [4] was 11.9 µM, the IC50 [5] was > 50 µM and the IC50 [6] was > 50 µM.
Molecule `CC(=O)N[C@H]1[C@H](O[C@H]2CC[C@]3(C)[C@H]4CC=C5[C@@H]6CC(C)(C)CC[C@]6(C(=O)O)CC[C@@]5(C)[C@]4(C)CC[C@H]3C2(C)C)O[C@H](CO)[C@@H](O)[C@@H]1O[C@@H]1O[C@H](CO)[C@H](O)[C@H](O)[C@H]1O` [LOTOIDOSIDE E] has an IC50 [7] of 0.018 µM.

From ChEMBL document CHEMBL3774313, “Natural product-based design, synthesis and biological evaluation of Albiziabioside A derivatives that selectively induce HCT116 cell death” (Eur J Med Chem, 2016)
